Measurements: US20190185499A1, “Novel Compounds” (Colgate-Palmolive Company, priority 2017, published 2019)

Assay: Lack of precipitate formation in aqueous solution
Format: physicochemical
Settings: ~5% concentration solution in water; after three months following its preparation
Procedure: 3.220 g of sodium ascorbyl phosphate is dissolved into 100 mL water and then 1.567 g of SnF2 is added. The mixture is stirred into completely solubilized and heat at 60 C for one hour. The solution is directly analyzed by 13C-NMR and diluted into 5000 ppm and analyzed by LC-MS.
In one aspect, a solution of ˜5% concentration of stannous ascorbyl phosphate is prepared as described in the above examples.

stannous ascorbyl phosphate
formation of an observable precipitate: will not form an observable precipitate
